# Results from publication PMC12040169 (PLOS Biology, 2025).
# Test: in vitro
# Conditions: human, hela cells, % viability
row,SMILES,"viability at 28.5 h, 10 µM"
1,O=C(c1n[nH]c2c1CCCC2)N1CCc2ncc(Cl)cc2C1 [CBK284975],93.4%
2,CCCOc1ccc(S(=O)(=O)NCc2ccncc2)c2ccccc12 [CBK268780],83.3%
3,O=C(/C=C/c1cn(-c2ccccc2)nc1-c1cccnc1)c1ccc(-c2ccccc2)cc1 [CBK263213],95.5%
4,CC(C)(C)NCC(O)CO/N=C(/c1ccncc1)c1ccc(Br)cc1 (stereo not shown) [CBK023914G],95.7%
5,O=S(=O)(c1cccs1)N1CCC2(CC1)OCCO2 [CBK057295],95.1%
6,COc1ccc(-c2ccc3n(c2=O)C[C@H]2C[C@@H]3CN(C(=O)c3ccncc3)C2)cc1 [CBK289178],90.8%
7,CC1=NS(=O)(=O)NC2=C1CCCC2 [CBK022998],96.6%
8,O=C(O)C1CCCCC1C(=O)NCCc1ccccc1 (stereo not shown) [CBK261707],94%
9,CCCNC(=O)COc1ccc(CC)cc1 [CBK058199],93.9%
10,Cc1cc(=O)[nH]c(SCc2cc(=O)c3ccccc3[nH]2)n1 [CBK294410],86.3%
11,CC(C)NS(=O)(=O)c1ccc(NS(=O)(=O)c2cccc(C(=O)O)c2)cc1 [CBK296950],84.3%
12,c1csc(CNc2nccnc2-c2cccs2)c1 [CBK036602],92.6%
13,CC(=O)c1cc(C(=O)Nc2ccc(Oc3ccc4c(c3)OCO4)cc2)cs1 [CBK286327],92.5%
14,O=C(Nc1ccncc1)c1cnn(-c2ccc(Cl)cc2)c1C(F)(F)F [CBK107441],95.5%
15,Nc1ncc(-c2cccc(-c3ccccc3)c2)nc1NCc1cccnc1 [CBK063491],93.5%
16,O=C(O)c1ccccc1C(=O)N1CCC2(CC1)NCCc1c2[nH]c2ccccc12 [CBK047235],83.9%
17,CCCc1nc(-c2ccc3c(c2)CCCN3S(C)(=O)=O)cs1 [CBK306253],93%
18,O=C(NCc1c(Cl)cccc1Cl)N(Cc1cccnc1)Cc1ccc2c(c1)OCO2 [CBK159450],96.8%
19,Cc1cccc(C)c1OCCOCC(O)CN1CCN(C)CC1 (stereo not shown) [CBK278206C],90.4%
20,CCOC(=O)c1cccc(-n2ncc(CN(C)C)n2)c1 [CBK112866],91.4%
21,O=C1NNC=Cc2c1cnc1nc(C(F)(F)F)nn21 [CBK288156],93.3%
22,CC1CC(=O)C2=C(C1)NN=C(c1cccc(C(F)(F)F)c1)C2 (stereo not shown) [CBK020138],86.9%

row,SMILES,"viability at 28.5 h, 10 µM"
1,CCCCNCCn1cnc2c(N)ncnc21 [CBK057447],116%
2,O=C(NCCO)c1cccc(-c2cnc3[nH]c(=O)n(Cc4ccccn4)c3n2)c1 [CBK065034],96.5%
3,CN(C)C(=O)c1ccc(-c2ccc3c(c2)COC(C2CCN(C(=O)Cc4ccc(C#N)cc4)CC2)O3)cc1 (stereo not shown) [CBK149760],107%
4,CCC(NC(=O)c1ccc(C(C)(C)C)[nH]c1=O)c1ccc(OC)cc1 (stereo not shown) [CBK282940],87.8%
5,c1ccc2c(OCCOCCN3CCCCC3)cccc2c1 [CBK262000],88%
6,OCCCc1[nH]nc(-c2ccc(Cl)cc2)c1Br [CBK006993],59.2%
7,CCOc1ccc(Cc2nnc(S)n2C2CC2)cc1OCC [CBK288388],66.4%
8,COc1ccc(C(=O)NC2CCCNC2=O)s1 (stereo not shown) [CBK282938],88.4%
9,COCCN1C(=O)CO[C@H]2CN(C(=O)Nc3ccc(F)cc3)C[C@H]21 [CBK289705],85.3%
10,c1ccc(-c2ccc(Nc3ccc4c(c3)OCCO4)nc2)cc1 [CBK037802],98.3%
11,CCNC(=O)c1cc2c(=O)n3cc(C)ccc3nc2n(Cc2ccco2)c1=N [CBK265312],85.8%
12,O=C(c1ccncc1)N1CCCC(c2cc3ccccc3cn2)C1 (stereo not shown) [CBK285166],87%
13,O=C(c1csnn1)N1CCc2ccccc21 [CBK200408],86%
14,Cc1ccc(-c2cc(C(=O)NCc3ccc(-c4ccc(C(N)=O)c(C)n4)cc3)no2)cc1 [CBK285644],116%
15,COc1cc(/C=C2\SC(=N)NC2=O)cc(Br)c1OS(=O)(=O)c1ccc(C)cc1 [CBK263609],95.1%
16,CC1(C(=O)NC(c2ccncc2)c2ccc(Cl)cc2)CCCO1 (stereo not shown) [CBK282710],89.5%
17,O=C(CSc1nnc(-c2ccco2)c(-c2ccco2)n1)Nc1ccccc1[N+](=O)[O-] [CBK265762],107%
18,COc1ccccc1NC(=O)N1C[C@@H]2C[C@H](C1)c1ccc(-c3cncnc3)c(=O)n1C2 [CBK289186],114%
19,C=CCN1C(=O)CC2(C1=O)C(=O)N(CCn1cnc3c1c(=O)n(C)c(=O)n3C)c1ccc(Cl)cc12 (stereo not shown) [CBK075410],94.8%
20,CC(C)C(=O)N1CCN(c2ccccc2NC(=O)c2ccc(N3CCCCC3)c([N+](=O)[O-])c2)CC1 [CBK267609],100%
21,Cc1nnc(SCc2cccc(Oc3ccccc3)c2)n1N [CBK265714],104%
22,CCc1nnc2ccc(NCc3ccccc3)nn12 [CBK287888],110%

row,SMILES,"viability at 28.5 h, 10 µM"
1,COc1ccc(CCNc2c(Cc3ccccc3)c(C)c(C#N)c3nc4ccccc4n23)cc1OC [CBK263135],93%
2,Cc1cc(Cl)c(S(=O)(=O)Nc2ccon2)cc1OCC(=O)NC1CCCCC1 [CBK266785],93.5%
3,CC(C)c1nc(CC(=O)NCCC(=O)N2CCCc3ccccc32)cs1 [CBK305437],98.1%
4,Cc1cccc(CNC(=O)CC2CCN(Cc3cccc(C(F)(F)F)c3)CC2)n1 [CBK285950],105%
5,COCC1CN(C(=O)Nc2ncc(Cc3ccc(C)c(Cl)c3)s2)CCO1 (stereo not shown) [CBK306286],84%
6,O=C1NC(=Nc2ccccn2)SC1Cc1ccc(Br)cc1 (stereo not shown) [CBK263109],82.3%
7,c1sc(C2CN3CCCC3CO2)nc1C1CCCC1 (stereo not shown) [CBK304814],90.4%
8,CSc1ccc(-c2nccnc2OCCC(C)C)cc1 [CBK106802],113%
9,CCN(CC)S(=O)(=O)c1ccc(C(=O)NCc2ccc(OC)cc2)cc1 [CBK305844],71.6%
10,O=C(NCCN1CCC(O)(c2ccc(F)cc2)CC1)C1CC1 [CBK283164],97.1%
11,Cn1c(=O)n(CC(=O)Nc2ccc(F)cc2)c2cccnc21 [CBK283919],101%
12,O=C(O)CC(CC(=O)N1CCN(Cc2ccc3c(c2)OCO3)CC1)c1ccccc1 (stereo not shown) [CBK074769],96%
13,O=C1Nc2ccc(-c3ccc4c(c3)OCO4)cc2C(=O)N2CCN(C(=O)CO)C[C@H]12 [CBK289593],85.6%
14,Cc1ccc(S(=O)(=O)Nc2ccc(Nc3cc(-c4cccc([N+](=O)[O-])c4)ncn3)cc2)cc1 [CBK090983],109%
15,Cc1ccc(N2C(=O)c3ccc(C(=O)OCc4ccc([N+](=O)[O-])cc4)cc3C2=O)cc1Cl [CBK265730],103%
16,O=C(CCCn1ccnc1)NC(Cc1cccs1)c1nccs1 (stereo not shown) [CBK285094],90.1%
17,COc1cccc(CN2CCCN(c3nccc(OCC4COc5ccccc5O4)n3)CC2)c1OC (stereo not shown) [CBK115476T],108%
18,CC(=O)N1CCN(C[C@@H]2C=C(C)[C@H](Cc3nnc(C)o3)C[C@H]2C(C)C)CC1 [CBK289219],114%
19,O=C(CN1CCC(c2ccncc2)CC1)N1CCCCC1 [CBK283504],102%
20,Cc1nn(CCn2cncc2-c2cnn(C)c2)c(C)c1C [CBK281783],83.7%
21,CCc1nc(CNc2ccc(NC(C)=O)cc2Cl)cs1 [CBK305103],102%
22,COc1ccc(C)cc1S(=O)(=O)n1ccc2c(OC3CCCN(C)C3)nccc21 (stereo not shown) [CBK051582C],85.3%

row,SMILES,"viability at 28.5 h, 10 µM"
1,COc1ccc(NC(=O)CC2Nc3cccc4cccc(c34)NC2=O)cc1 (stereo not shown) [CBK267561],93.1%
2,c1ccc(N2CCN(c3nc4cc5c(cc4s3)OCCO5)CC2)cc1 [CBK287499],93.6%
3,CCCC1(C)CCCN(Cc2nnnn2-c2ccc(S(C)(=O)=O)cc2)C1 (stereo not shown) [CBK304133],79.8%
4,Cc1cc(C)n2c(Nc3ccc(S(N)(=O)=O)cc3)nnc2n1 [CBK267601],110%
5,CN(C)CCN(C)C(=O)c1cc(-c2ccc(Cl)cc2)[nH]n1 [CBK115928],94.9%
6,COc1ccc(-c2ccc(OCCNC(=O)c3cccc(F)c3)nn2)cc1 [CBK294428],87.1%
7,Cc1cc(C)nc(SCc2c(C)c(C)c(CSc3nc(C)cc(C)n3)c(C)c2C)n1 [CBK262070],109%
8,O=C(c1ccoc1)N1CCC2(CCCN(Cc3c(F)cccc3F)C2)C1 (stereo not shown) [CBK132806],95.1%
9,Oc1cccc(-c2nccnc2NCc2cccs2)c1 [CBK037343],88.8%
10,COc1ccccc1C(=O)NCCNC(=O)c1ccccn1 [CBK269174],104%
11,CCN(C(=O)CC1SC(NCC2CCCCC2)=NC1=O)c1ccccc1 (stereo not shown) [CBK067373],89.3%
12,C=Cn1cc(CN2CCC(O)(c3ccccc3C)CC2)c(C)n1 [CBK282580],93.7%
13,CC(C)NC(=O)NC[C@H]1C[C@@H]2CCN1C[C@@H]2c1cc(-c2ccccc2)nn1C [CBK289097],84.5%
14,COc1ccc(NC(S)=NCCN2CCC(C)CC2)cc1Cl [CBK267268],84%
15,CCN(CC)CCNc1cc(C)nc2c1C(=O)C(=O)C=C2N1CCCCC1 [CBK265049],89.5%
16,O=C(C1CCC1)N1CCC(c2nnc3n2CCCCC3)CC1 [CBK284625],103%
17,COc1ccc(OCCCN)c(C(=O)N2CCc3nc[nH]c(=O)c3C2)c1 [CBK307361],97.2%
18,N#CC1=C(N)n2c(s/c(=C\c3ccc(O)cc3)c2=O)=C(C#N)C1c1ccc(O)cc1 (stereo not shown) [CBK217780],103%
19,O=C(c1cccnc1)N1CCN(C2CC(=O)N(c3ccc(F)cc3)C2=O)CC1 (stereo not shown) [CBK270049],91.5%
20,Cc1ccc(CN(CCCn2ccnc2)Cc2nc3ccccc3[nH]2)o1 [CBK283103],90.9%
21,COc1ccc(CCCC(=O)NCc2ccc(OC3CCNCC3)cc2)cc1OC [CBK028428T],94.9%
22,CCC(=O)N1CCCc2cc(C(O)CN3CCC(C)CC3)ccc21 (stereo not shown) [CBK282144],105%
